According to patent US20250368647A1, “NITROGEN CONTAINING CONDENSED 2,3-DIHYDROQUINAZOLINONE COMPOUNDS AS NAV1.8 INHIBITORS” (GLAXOSMITHKLINE INTELLECTUAL PROPERTY DEVELOPMENT LIMITED, priority 2022, published 2025):
Counter-ions that a name gives are not always drawn.

Biological target: human Nav1.8 (Homo sapiens (Human), UniProt Q9Y5Y9)
Test: QPatch 48 HTX voltage-clamp electrophysiology, half inactivation state (V1/2) protocol, HEK293-Nav1.8 cells
Format: cell-based
Conditions: HEK293 cells expressing human Nav1.8, human Navβ1 and human TREK1, P2 current
Description: Human embryonic kidney 293 cells (HEK293) expressing human Nav1.8, human Navβ1 and human TREK1 (HEK293-Nav1.8) were grown in T150 cell culture flasks at 37° C., 5% CO2 incubator. HEK293-Nav1.8 were passaged every 2-3 days when confluency reached 80-90% in T150 cell culture flasks.
Pharmacological assessment of compounds of the invention was performed using the QPatch 48 HTX electrophysiological platform. HEK293-Nav1.8 cells were prepared on the day of use by removing culture media, washing in DPBS, adding Accutase (2 mL to cover the surface, aspirate 1 mL then 1-2 minutes at 37° C.) followed by addition of CHO-SFM II to stop the enzyme digestion and in order to obtain a suspension of 3×10^6 cell/mL.
Compounds of the invention were prepared in an extracellular solution of the following composition: NaCl (145 mM), KCl (4 mM), CaCl2) (2 mM), MgCl (2 mM), HEPES (1 mM), Glucose (10 mM), pH 7.4 with NaOH Osmolality 300 mOsM/L. An intracellular solution of the following composition was used: CsF (115 mM), CsCl (20 mM), NaCl (5 mM), EGTA (10 mM), HEPES (10 mM), Sucrose (20 mM), pH 7.2 with CsOH Osmolality 310 mOsm/L.
Utilizing the voltage-clamp mode in the QPatch 48 HTX system a half inactivation state voltage protocol (V1/2) was used to determine pharmacological activity of compounds of the invention at Nav1.8 ion channels. A V1/2 protocol was utilized with the following voltage steps: a holding voltage of −100 mV was established followed by a 20 ms voltage step to 0 mV (P1), followed by an inactivating voltage step at −46 mV for 8 seconds, followed by a step to −100 mV for 20 ms, before a 20 ms step to 0 mV (P2), then returned to the holding voltage of −100 mV. This voltage protocol was repeated at a frequency of every 15 seconds, the current magnitude was quantified at the P2 step throughout the recording. Inhibition of the measured current amplitude with compounds of the invention was analyzed by fitting a 4-6 points dose-response curve allowing determination of the fifty percent inhibition concentration (IC50). P2 currents were normalized according to measurements made at baseline (Baseline, vehicle only), after compound (Input, at each test concentration), and after positive reference compound (FullResponse, to achieve complete block), fit to the following equation: […]
To assess current run-down over the course of the experiment vehicle-only wells were utilized and the normalized current with vehicle-only (n.IVEH) was determined. To correct the compound response for run-down, the currents were corrected according to the following formula: […]
Compound inhibition was fitted to the following Hill Equation to estimate the half maximal inhibition concentration (IC50)
[formula] • where Y is the normalized run-down corrected inhibition relative to the vehicle control (equivalent to n.IRD_Correct), C the test compound concentration, IC50 the concentration of test compound to inhibit the sodium current by 50%, and h the Hill coefficient.

human Nav1.8, sequence (Q9Y5Y9 whole entry): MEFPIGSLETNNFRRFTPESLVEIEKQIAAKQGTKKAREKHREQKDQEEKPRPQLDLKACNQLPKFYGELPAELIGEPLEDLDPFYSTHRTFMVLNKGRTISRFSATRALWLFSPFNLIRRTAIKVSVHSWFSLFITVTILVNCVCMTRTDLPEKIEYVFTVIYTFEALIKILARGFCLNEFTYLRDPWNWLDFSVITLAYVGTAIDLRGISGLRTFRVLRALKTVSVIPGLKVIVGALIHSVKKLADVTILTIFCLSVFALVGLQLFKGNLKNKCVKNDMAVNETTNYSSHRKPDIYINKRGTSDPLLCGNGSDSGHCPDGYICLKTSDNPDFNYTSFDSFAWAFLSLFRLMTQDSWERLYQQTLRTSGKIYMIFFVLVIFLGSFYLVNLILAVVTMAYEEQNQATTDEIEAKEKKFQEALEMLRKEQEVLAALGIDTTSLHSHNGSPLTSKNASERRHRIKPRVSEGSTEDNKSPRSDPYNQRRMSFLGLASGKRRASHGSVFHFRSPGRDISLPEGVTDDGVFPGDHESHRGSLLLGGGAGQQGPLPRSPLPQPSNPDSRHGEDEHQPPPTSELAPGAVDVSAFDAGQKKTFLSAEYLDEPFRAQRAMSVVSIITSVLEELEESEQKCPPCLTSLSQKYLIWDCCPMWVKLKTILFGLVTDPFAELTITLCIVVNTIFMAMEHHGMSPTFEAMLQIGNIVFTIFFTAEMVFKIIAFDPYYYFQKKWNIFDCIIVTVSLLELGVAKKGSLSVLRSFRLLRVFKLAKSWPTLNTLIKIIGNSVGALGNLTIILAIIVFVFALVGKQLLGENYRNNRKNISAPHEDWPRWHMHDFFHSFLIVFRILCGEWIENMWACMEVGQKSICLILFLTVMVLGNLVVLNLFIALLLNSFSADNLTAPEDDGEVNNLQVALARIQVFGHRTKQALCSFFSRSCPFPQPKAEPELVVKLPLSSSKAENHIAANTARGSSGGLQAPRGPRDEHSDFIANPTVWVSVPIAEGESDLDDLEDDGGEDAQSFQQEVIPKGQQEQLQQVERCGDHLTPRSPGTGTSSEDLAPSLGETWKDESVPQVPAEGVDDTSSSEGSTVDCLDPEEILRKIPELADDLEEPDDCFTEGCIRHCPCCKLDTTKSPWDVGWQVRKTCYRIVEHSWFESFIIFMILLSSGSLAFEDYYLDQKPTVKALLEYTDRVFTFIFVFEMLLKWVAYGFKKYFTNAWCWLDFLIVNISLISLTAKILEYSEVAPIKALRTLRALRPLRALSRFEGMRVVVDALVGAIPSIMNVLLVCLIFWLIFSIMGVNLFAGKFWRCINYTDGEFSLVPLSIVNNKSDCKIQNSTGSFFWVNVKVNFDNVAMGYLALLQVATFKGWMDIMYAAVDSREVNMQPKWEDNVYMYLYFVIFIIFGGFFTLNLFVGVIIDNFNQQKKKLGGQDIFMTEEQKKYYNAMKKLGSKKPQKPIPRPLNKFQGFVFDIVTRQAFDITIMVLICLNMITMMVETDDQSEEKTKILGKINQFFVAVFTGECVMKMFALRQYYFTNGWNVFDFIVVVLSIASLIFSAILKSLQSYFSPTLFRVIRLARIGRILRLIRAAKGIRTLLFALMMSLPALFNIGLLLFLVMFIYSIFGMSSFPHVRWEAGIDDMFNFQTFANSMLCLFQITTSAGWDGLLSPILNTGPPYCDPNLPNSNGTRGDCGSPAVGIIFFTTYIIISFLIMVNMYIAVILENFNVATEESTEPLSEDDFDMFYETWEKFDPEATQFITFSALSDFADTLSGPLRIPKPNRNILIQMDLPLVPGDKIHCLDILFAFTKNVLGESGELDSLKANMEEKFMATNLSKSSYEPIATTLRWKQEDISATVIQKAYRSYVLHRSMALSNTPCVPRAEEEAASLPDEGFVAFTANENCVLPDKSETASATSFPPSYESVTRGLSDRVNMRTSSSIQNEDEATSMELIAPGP
human Nav1.8, sequence (Q07699 19-218 partner): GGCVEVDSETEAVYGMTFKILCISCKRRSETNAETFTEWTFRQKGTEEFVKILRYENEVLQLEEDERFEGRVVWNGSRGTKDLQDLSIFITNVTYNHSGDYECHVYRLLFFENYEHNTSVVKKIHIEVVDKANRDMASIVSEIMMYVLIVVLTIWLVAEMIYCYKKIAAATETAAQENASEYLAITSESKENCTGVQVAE

**Q.** How did the “Nav1.8, pIC50” value turn out when `Cc1c(F)ccc2c1CNCCc1[nH]c(=O)ccc1N1CN2c2cc(F)c(F)cc2C1=O.Cl` [Example 68, 2,3,8-Trifluoro-9-methyl-10,11,12,13-tetrahydro-19H-5,18-methanodibenzo[c,f]pyrido[3,2-j][1,5,9]triazacyclotridecine-15,19(14H)-dione hydrochloride] was run?
**A.** Its value is 7.7.

**Q.** `O=C1c2cc(F)c(F)cc2N2CN1c1ccc(=O)[nH]c1NCCCc1c2ccc(F)c1F` [Example 98, 2,3,8,9-Tetrafluoro-10,11,12,13-tetrahydro-19H-5,18-methanodibenzo[f,i]pyrido[2,3-b]-[1,4,8]triazacyclotridecine-15,19(14H)-dione, formic acid salt] was tested. Which “Nav1.8, pIC50” value did it give?
**A.** The value was 7.6.

**Q.** How did the “Nav1.8, pIC50” value turn out when `Cl.O=C1c2cc(F)c(F)cc2N2CN1c1ccc(=O)[nH]c1CCNCc1cc(Cl)ccc12` [Example 76, 8-Chloro-2,3-difluoro-10,11,12,13-tetrahydro-19H-5,18-methanodibenzo[c,f]pyrido[3,2-j][1,5,9]triazacyclotridecine-15,19(14H)-dione hydrochloride] was run?
**A.** Its value is 7.2.

**Q.** `Cl.O=C1c2cc(F)c(F)cc2N2CN1c1ccc(=O)[nH]c1CCNCc1c2ccc(Cl)c1Cl` [Example 77, 8,9-Dichloro-2,3-difluoro-10,11,12,13-tetrahydro-19H-5,18-methanodibenzo[c,f]pyrido[3,2-j][1,5,9]triazacyclotridecine-15,19(14H)-dione hydrochloride] was tested. Which “Nav1.8, pIC50” value did it give?
**A.** Its value is 8.7.

**Q.** How did the “Nav1.8, pIC50” value turn out when `Cl.O=C1c2cc(F)c(F)cc2N2CN1c1ccc(=O)[nH]c1CCNCc1cc(F)ccc12` [Example 53, 2,3,8-Trifluoro-10,11,12,13-tetrahydro-19H-5,18-methanodibenzo[c,f]pyrido[3,2-j][1,5,9]triazacyclotridecine-15,19(14H)-dione hydrochloride] was run?
**A.** The value was 6.7.

**Q.** How did the “Nav1.8, pIC50” value turn out when `C[C@H]1NCCc2[nH]c(=O)ccc2N2CN(c3cc(Cl)c(F)cc3C2=O)c2ccc(F)cc21` [Example 121, (10R)-3-chloro-2,8-difluoro-10-methyl-10,11,12,13-tetrahydro-19H-5,18-methanodibenzo[c,f]pyrido[3,2-j][1,5,9]triazacyclotridecine-15,19(14H)-dione] was run?
**A.** The value was 7.4.

**Q.** With `O=C1c2cc(C(F)(F)F)ccc2N2CN1c1ccc(=O)[nH]c1NCCCc1cc(F)ccc12` [Example 27, 8-Fluoro-2-(trifluoromethyl)-10,11,12,13-tetrahydro-19H-5,18-methanodibenzo[f,i]pyrido[2,3-b][1,4,8]triazocyclotridecine-15,19(14H)-dione] as the compound, how does the “Nav1.8, pIC50” value read?
**A.** The value was 7.8.

**Q.** How did the “Nav1.8, pIC50” value turn out when `COc1c(F)ccc2c1CNCCc1[nH]c(=O)ccc1N1CN2c2cc(C#N)c(F)cc2C1=O.Cl` [Example 73, 2,8-Difluoro-9-methoxy-15,19-dioxo-10,11,12,13,14,15-hexahydro-19H-5,18-methanodibenzo-[c,f]pyrido[3,2-j][1,5,9]triazacyclotridecine-3-carbonitrile hydrochloride] was run?
**A.** Its value is 6.1.

**Q.** Which “Nav1.8, pIC50” value does the source give for `CC1NCCc2[nH]c(=O)ccc2N2CN(c3cc(C(F)(F)F)c(F)cc3C2=O)c2ccc(F)cc21` (racemic) [Example 117, 2,8-Difluoro-10-methyl-3-(trifluoromethyl)-10,11,12,13-tetrahydro-19H-5,18-methanodibenzo-[c,f]pyrido[3,2-j][1,5,9]triazacyclotridecine-15,19(14H)-dione hydrochloride] here?
**A.** Its value is 7.3.

**Q.** Which “Nav1.8, pIC50” value does the source give for `O=C1c2cc(C(F)(F)F)ccc2N2CN1c1ccc(=O)[nH]c1CCNCc1cc(F)ccc12` [Example 41, 8-Fluoro-2-(trifluoromethyl)-10,11,12,13-tetrahydro-19H-5,18-methanodibenzo[c,f]pyrido[3,2-f][1,5,9]triazacyclotridecine-15,19(14H)-dione] here?
**A.** The value was 7.3.

**Q.** How did the “Nav1.8, pIC50” value turn out when `O=C1c2cc(F)c(C(F)(F)F)cc2N2CN1c1ccc(=O)[nH]c1CCNCc1c2ccc(F)c1Cl` [Example 58, 9-Chloro-2,8-difluoro-3-(trifluoromethyl)-10,11,12,13-tetrahydro-19H-5,18-methano-dibenzo[c,f]pyrido[3,2-j][1,5,9]triazacyclotridecine-15,19(14H)-dione] was run?
**A.** The value was 8.9.

**Q.** How did the “Nav1.8, pIC50” value turn out when `O=C1c2cc(C(F)(F)F)ccc2N2CN1c1ccc(=O)[nH]c1NCCCc1cc(F)c(F)cc12` [Example 39, 7,8-Difluoro-2-(trifluoromethyl)-10,11,12,13-tetrahydro-19H-5,18-methanodibenzo[f,i]dipyrido[2,3,-b][1,4,8]triazacyclotridecine-15,19(14H)-dione] was run?
**A.** The value was 7.0.

**Q.** How did the “Nav1.8, pIC50” value turn out when `O=C1c2cc(F)c(F)cc2N2CN1c1ccc(=O)[nH]c1CCNCc1c2ccc(F)c1O.O=CO` [Example 84, 2,3,8-Trifluoro-9-hydroxy-10,11,12,13-tetrahydro-19H-5,18-methanodibenzo-[c,f]pyrido[3,2-j][1,5,9]triazacyclotridecine-15,19(14H)-dione, formic acid salt] was run?
**A.** The value was 5.5.

**Q.** For `Cl.O=C1c2cc(F)c(C(F)(F)F)cc2N2CN1c1ccc(=O)[nH]c1CCNCc1c(F)cccc12` [Example 80, 2,9-Difluoro-3-(trifluoromethyl)-10,11,12,13-tetrahydro-19H-5,18-methanodibenzo-[c,f]pyrido[3,2-j][1,5,9]triazacyclotridecine-15,19(14H)-dione hydrochloride], which “Nav1.8, pIC50” value is on record?
**A.** Its value is 7.7.

**Q.** With `O=C1c2cc(C(F)(F)F)ccc2N2CN1c1ccc(=O)[nH]c1NCCCCc1cc(F)ccc12` [Example 11, 3^4-Fluoro-2^6-(trifluoromethyl)-1^1,1^2,2^1,2^2,2^3,2^4-hexahydro-8-aza-2(3,1)-quinazolina-1(5,6)-pyridina-3(1,2)-benzenacyclooctaphane-1^2,2^4-dione] as the compound, how does the “Nav1.8, pIC50” value read?
**A.** The value was 7.3.

**Q.** For `Cl.O=C1c2cc(F)c(F)cc2N2CN1c1ccc(=O)[nH]c1CCNCc1c2ccc(F)c1Cl` [Example 64, 9-Chloro-2,3,8-trifluoro-10,11,12,13-tetrahydro-19H-5,18-methanodibenzo[c,f]pyrido[3,2-i][1,5,9]triazacyclotridecine-15,19(14H)-dione hydrochloride], which “Nav1.8, pIC50” value is on record?
**A.** The value was 8.2.

**Q.** `CNc1cc2c(cc1F)C(=O)N1CN2c2ccc(F)cc2CNCCc2[nH]c(=O)ccc21` [Example 54, 2,8-Difluoro-3-(methylamino)-10,11,12,13-tetrahydro-19H-5,18-methano-dibenzo[c,f]pyrido[3,2-j][1,5,9]triazacyclotridecine-15,19(14H)-dione] was tested. Which “Nav1.8, pIC50” value did it give?
**A.** The value was 6.

Same assay, conditions: HEK293 cells expressing human Nav1.8, human Navβ1 and human TREK1, P2 current, read-out: Nav1.8, pIC50 (converted)

**Q.** How did the IC50 turn out when `C[C@@H]1NCCc2[nH]c(=O)ccc2N2CN(c3cc(C(F)(F)F)c(F)cc3C2=O)c2ccc(F)cc21` [Example 119, (10S)-2,8-Difluoro-10-methyl-3-(trifluoromethyl)-10,11,12,13-tetrahydro-19H-5,18-methanodibenzo[c,f]pyrido[3,2-j][1,5,9]triazacyclotridecine-11(10H)-dione] was run?
**A.** The IC50 was 631 nM.

**Q.** For `CC1Cc2[nH]c(=O)ccc2N2CN(c3ccc(F)cc3CN1)c1cc(C(F)(F)F)c(F)cc1C2=O` (single isomer, unassigned; isomer 1) [Example 124, 2,8-difluoro-12-methyl-3-(trifluoromethyl)-10,11,12,13-tetrahydro-19H-5,18-methanodibenzo[c,f]pyrido[3,2-j][1,5,9]triazacyclotridecine-15,19(14H)-dione, Isomer 1], which IC50 is on record?
**A.** The IC50 was 1580 nM.

**Q.** Which IC50 does the source give for `CC[C@H]1NCCc2[nH]c(=O)ccc2N2CN(c3cc(C(F)(F)F)c(F)cc3C2=O)c2ccc(F)cc21` [Example 127, (10R)-10-ethyl-2,8-difluoro-3-(trifluoromethyl)-10,11,12,13-tetrahydro-19H-5,18-methanodibenzo[c,f]pyrido[3,2-j][1,5,9]triazacyclotridecine-15,19(14H)-dione] here?
**A.** The IC50 was 63.1 nM.

**Q.** `C[C@H]1NCCc2[nH]c(=O)ccc2N2CN(c3cc(C(F)(F)F)c(F)cc3C2=O)c2ccc(F)cc21` [Example 118, (10R)-2,8-difluoro-10-methyl-3-(trifluoromethyl)-10,11,12,13-tetrahydro-19H-5,18-methanodibenzo[c,f]pyrido[3,2-j][1,5,9]triazacyclotridecine-11(10H)-dione] was tested. Which IC50 did it give?
**A.** The IC50 was 31.6 nM.
